From ChEMBL document CHEMBL1132516, “Further hypotensive metabolites from Verbesina caracasana” (1999) come the findings set out here.

Test [1] concerns Rattus norvegicus. In words: Percent change in diastolic blood pressure (mmHg)in anesthetized rats by i.v. administration. In kind it is functional, Artery.
For test [2], the system named is Rattus norvegicus. Description: Percent change in systolic blood pressure (mmHg)in anesthetized rats by i.v. administration. The format is functional, Artery.
Test [3] has as its system Rattus norvegicus. In words: Percent change in respiratory frequency (RF) expressed in beats / min in anesthetized rats by i.v. administration. In kind it is functional.
Test [4] deals with Rattus norvegicus. Description: Percent change in heart rate expressed in beats / min in anesthetized rats by i.v. administration. The format is functional.
Test [5] deals with Rattus norvegicus. In words: Percent change in tidal volume expressed in microL in anesthetized rats by i.v. administration. The format is functional.
Test [6] concerns Rattus norvegicus. Description: Maximum rate of rise of the left ventricular isovolumetric pressure in anesthetized rats by i.v. administration. In kind it is functional, Heart left ventricle.
Test [7] relates to Rattus norvegicus. In words: Maximum rate of rise of the left ventricular isovolumetric pressure (dP/dt, an index of cardiac inotropism in mmHg/sec)in anesthetized rats by i.v. administration. The format is functional, Heart left ventricle.

With `NCCCCN=C(N)N` [AGMATINE], the Change is reported as -10% in the test on Rattus norvegicus [1]; -8% with Rattus norvegicus [2]; 12% in the test with Rattus norvegicus [3]; 0% with Rattus norvegicus [4]; 14% in the test with Rattus norvegicus [5]; 16% in the test on Rattus norvegicus [6].

As for `COC(=O)[C@H]1[C@H]2C[C@@H]3c4[nH]c5cc(OC)ccc5c4CCN3C[C@H]2C[C@@H](OC(=O)c2cc(OC)c(OC)c(OC)c2)[C@@H]1OC` [RESERPINE], the Change in the test with Rattus norvegicus [1] is -32%; in the test on Rattus norvegicus [2] it was -31%; in the test with Rattus norvegicus [4], -15%; with Rattus norvegicus [7], -22%.

As to `NCCc1c[nH]cn1` [HISTAMINE], the Change is reported as -26% in the test with Rattus norvegicus [1], -25% with Rattus norvegicus [2], -3% in the test with Rattus norvegicus [4] and -16% with Rattus norvegicus [7].

In the case of `COc1ccc(Cc2nccc3cc(OC)c(OC)cc23)cc1OC` [PAPAVERINE], the Change with Rattus norvegicus [1] is on record as -16%; with Rattus norvegicus [2], -18%; in the test with Rattus norvegicus [4], -5%; in the test with Rattus norvegicus [7], -19%.

As to `CC(C)=CCNC(=N)NCCCCN`, the Change is given as -17% with Rattus norvegicus [1]; -11% in the test with Rattus norvegicus [2]; 4% in the test with Rattus norvegicus [3]; -4% with Rattus norvegicus [4]; 11% in the test on Rattus norvegicus [5]; 23% with Rattus norvegicus [6].

In the case of `C[N+](C)(C)CCCCCC[N+](C)(C)C.[Cl-].[Cl-]` [HEXAMETHONIUM CHLORIDE], the Change in the test on Rattus norvegicus [1] is -43%; in the test with Rattus norvegicus [2] it was -42%; with Rattus norvegicus [4], -13%; in the test with Rattus norvegicus [7] it was -69%.

Consider `COc1ccc(/C=C/C(=O)NCCCC/N=C(\N)NCC=C(C)C)cc1OC`, for which the Change was -29% in the test on Rattus norvegicus [1]; -26% in the test on Rattus norvegicus [2]; 21% in the test with Rattus norvegicus [3]; 5% in the test with Rattus norvegicus [4]; 41% in the test with Rattus norvegicus [5]; 57% in the test on Rattus norvegicus [6].

Consider `Clc1cccc(Cl)c1NC1=NCCN1` [CLONIDINE], for which the Change in the test with Rattus norvegicus [1] was -17%; in the test on Rattus norvegicus [2], -16%; with Rattus norvegicus [4] it was -15%; with Rattus norvegicus [6], -21%.

As to `COc1ccc(/C=C/C(=O)NCCCCN=C(N)N)cc1OC`, the Change with Rattus norvegicus [1] is -8%; in the test on Rattus norvegicus [2], -8%; in the test on Rattus norvegicus [3], 4%; in the test on Rattus norvegicus [4] it was 0%; in the test with Rattus norvegicus [5], 12%; in the test with Rattus norvegicus [6], 11%.

On to `N=C(N)NCCN1CCCCCCC1` [GUANETHIDINE], for which the Change in the test with Rattus norvegicus [1] is recorded as -24%; in the test on Rattus norvegicus [2], -26%; in the test with Rattus norvegicus [4] it was -7%; in the test with Rattus norvegicus [6], -17%.

In the case of `CC(C)=CCN=C(N)N` [GALEGINE], the Change in the test with Rattus norvegicus [1] was -33%; with Rattus norvegicus [2], -27%; in the test on Rattus norvegicus [3] it was 70%; with Rattus norvegicus [4], -27%; in the test on Rattus norvegicus [5] it was 31%; in the test on Rattus norvegicus [6], 32%.
